Where a name gives a salt, the structure may show the parent alone.
Assay: In vitro inhibition of acid induced swelling in rat platelets by 50% as a measure of NHE-1 inhibition

SMILES	IC50 [nM]
CC(C)c1ccc(C(=O)NC(=N)N)cc1S(C)(=O)=O	75
Cc1ccnc2c1C(=NN=C(N)N)C[C@@H](c1cc(Cl)sc1Cl)C2 [(R)-N-[7-(2,5-dichloro-3-thienyl)-4-methyl-(7R)-5,6,7,8-tetrahydro-5-quinolinyliden(imine)]iminomethanediamine 2CH3SO3H]	33
Cc1ccnc2c1C(=NN=C(N)N)C[C@H](c1cc(Cl)sc1Cl)C2 [(S)-N-[7-(2,5-dichloro-3-thienyl)-4-methyl-(7S)-5,6,7,8-tetrahydro-5-quinolinyliden(imine)]iminomethanediamine 2CH3SO3H]	17
Cc1ccc(F)cc1[C@H]1CC(=NN=C(N)N)c2c(C)ccnc2C1 [(S)-N-[7-(5-fluoro-2-methylphenyl)-4-methyl-(7S)-5,6,7,8-tetrahydro-5-quinolinyliden(imine)]iminomethanediamine 2CH3SO3H]	14
Cc1cc(C)c2c(n1)CC(c1ccccc1)CC2=NN=C(N)N (stereo not drawn) [N-(2,4-dimethyl-7-phenyl-5,6,7,8-tetrahydro-5-quinolinyliden(imine))iminomethanediamine. dihydrochloride]	180
Cc1ccc2c(n1)CC(c1ccccc1)CC2=NN=C(N)N (stereo not drawn) [N-(2-methyl-7-phenyl-5,6,7,8-tetrahydro-5-quinolinyliden(imine))iminomethanediamine. dihydrochloride]	2800
NC(N)=NN=C1CC(c2ccccc2)Oc2ccccc21 (stereo not drawn) [N-(2-phenyl-3,4-dihydro-2H-4-chromenyliden(imine))iminomethanediamine. hydrochloride]	3300
NC(N)=NN=c1cc(-c2ccccc2)oc2ccccc12 [N-(2-phenyl-4H-4-chromenyliden(imine))iminomethanediamine. hydrochloride]	6400
Cc1ccnc2c1C(=NN=C(N)N)CC(c1ccccc1)C2 (stereo not drawn) [N-(4-methyl-7-phenyl-5,6,7,8-tetrahydro-5-quinolinyliden(imine))iminomethanediamine. dihydrochloride]	91
NC(N)=NN=C1CC(c2ccccc2)Cc2[nH]ccc21 (stereo not drawn) [N-(6-phenyl-4,5,6,7-tetrahydro-1H-4-indolyliden(imine))iminomethanediamine. dihydrochloride]	3500
NC(N)=NN=C1CC(c2ccccc2)Cc2ncccc21 (stereo not drawn) [N-(7-phenyl-5,6,7,8-tetrahydro-5-quinolinyliden(imine))iminomethanediamine. dihydrochloride]	410
COc1cccc(C=NNC(=N)N)c1OCc1ccccc1 [N-[2-(2-benzyloxy-3-methoxyphenyl)-(E)-1-meth(imine)]iminomethanediamine]	2300
Cc1cccc2c1C(=NN=C(N)N)CC(c1ccccc1Cl)O2 (stereo not drawn) [N-[2-(2-chlorophenyl)-5-methyl-3,4-dihydro-2H-4-chromenyliden(imine)]iminomethanediamine. hydrochloride]	200
Cc1cccc2oc(-c3ccccc3Cl)cc(=NN=C(N)N)c12 [N-[2-(2-chlorophenyl)-5-methyl-4H-4-chromenylidenmethyl]iminomethanediamine. dihydrochloride]	360
Cc1ccccc1C1CC(=NN=C(N)N)c2c(C)c[nH]c2C1 (stereo not drawn) [N-[3-methyl-6-(2-methylphenyl)-4,5,6,7-tetrahydro-1H-4-indolyliden(imine)]iminomethanediamine. dihydrochloride]	34
Cc1ccccc1C1CC(=NN=C(N)N)c2c(C)ccnc2C1 (stereo not drawn) [N-[4-methyl-7-(2-methylphenyl)-5,6,7,8-tetrahydro-5-quinolinyliden(imine)]iminomethanediamine. dihydrochloride]	57
Cc1ccnc2c1C(=NN=C(N)N)CC(c1cccs1)C2 (stereo not drawn) [N-[4-methyl-7-(2-thienyl)-5,6,7,8-tetrahydro-5-quinolinyliden(imine)]iminomethanediamine. dihydrochloride]	47
Cc1ccnc2c1C(=NN=C(N)N)CC(c1ccsc1)C2 (stereo not drawn) [N-[4-methyl-7-(3-thienyl)-5,6,7,8-tetrahydro-5-quinolinyliden(imine)]iminomethanediamine. dihydrochloride]	30
Cc1n[nH]c2c1C(=NN=C(N)N)CC(c1ccccc1Cl)C2 (stereo not drawn) [N-[6-(2-chlorophenyl)-3-methyl-4,5,6,7-tetrahydro-1H-4-indazolyliden(imine)]iminomethanediamine. dihydrochloride]	55

SMILES	IC50 [nM]
Cc1coc2c1C(=NN=C(N)N)CC(c1ccccc1Cl)C2 (stereo not drawn) [N-[6-(2-chlorophenyl)-3-methyl-4,5,6,7-tetrahydrobenzo[b]furan-4-yliden(imine)]iminomethanediamine. hydrochloride]	82
Cc1ccnc2c1C(=NN=C(N)N)CC(c1cccc(Cl)c1Cl)C2 (stereo not drawn) [N-[7-(2,3-dichlorophenyl)-4-methyl-5,6,7,8-tetrahydro-5-quinolinyliden(imine)]iminomethanediamine. dihydrochloride]	89
Cc1ccnc2c1C(=NN=C(N)N)CC(c1ccc(Cl)cc1Cl)C2 (stereo not drawn) [N-[7-(2,4-dichlorophenyl)-4-methyl-5,6,7,8-tetrahydro-5-quinolinyliden(imine)]iminomethanediamine. dihydrochloride]	340
Cc1ccnc2c1C(=NN=C(N)N)CC(c1cc(Cl)ccc1Cl)C2 (stereo not drawn) [N-[7-(2,5-dichlorophenyl)-4-methyl-5,6,7,8-tetrahydro-5-quinolinyliden(imine)]iminomethanediamine. dihydrochloride]	58
Cc1ccnc2c1C(=NN=C(N)N)CC(c1cc(F)ccc1F)C2 (stereo not drawn) [N-[7-(2,5-difluorophenyl)-4-methyl-5,6,7,8-tetrahydro-5-quinolinyliden(imine)]iminomethanediamine. dihydrochloride]	39
Cc1ccnc2c1C(=NN=C(N)N)CC(c1ccccc1Br)C2 (stereo not drawn) [N-[7-(2-bromophenyl)-4-methyl-5,6,7,8-tetrahydro-5-quinolinyliden(imine)]iminomethanediamine. dihydrochloride]	56
Cc1ccnc2c1C(=NN=C(N)N)CC(c1ccsc1Cl)C2 (stereo not drawn) [N-[7-(2-chloro-3-thienyl)-4-methyl-5,6,7,8-tetrahydro-5-quinolinyliden(imine)]iminomethanediamine. dihydrochloride]	22
COc1ccnc2c1C(=NN=C(N)N)CC(c1ccccc1Cl)C2 (stereo not drawn) [N-[7-(2-chlorophenyl)-4-methoxy-5,6,7,8-tetrahydro-5-quinolinyliden(imine)]iminomethanediamine. 2CH3SO3H]	50
Cc1cnnc2c1C(=NN=C(N)N)CC(c1ccccc1Cl)C2 (stereo not drawn) [N-[7-(2-chlorophenyl)-4-methyl-5,6,7,8-tetrahydro-5-cinnolinyliden(imine)]iminomethanediamine. dihydrochloride]	26
Cc1ncnc2c1C(=NN=C(N)N)CC(c1ccccc1Cl)C2 (stereo not drawn) [N-[7-(2-chlorophenyl)-4-methyl-5,6,7,8-tetrahydro-5-quinazolinyliden(imine)]iminomethanediamine. dihydrochloride]	240
Cc1ccnc2c1C(=NN=C(N)N)CC(c1ccccc1Cl)C2 (stereo not drawn) [N-[7-(2-chlorophenyl)-4-methyl-5,6,7,8-tetrahydro-5-quinolinyliden(imine)]iminomethanediamine. dihydrochloride]	40
Cc1ccnc2c1C(=NN=C(N)N)C[C@@H](c1ccccc1Cl)C2 [N-[7-(2-chlorophenyl)-4-methyl-(7S)-5,6,7,8-tetrahydro-5-quinolinyliden(imine)]iminomethanediamine 2CH3SO3H]	700
Cc1ccnc2c1C(=NN=C(N)N)C[C@H](c1ccccc1Cl)C2 [N-[7-(2-chlorophenyl)-4-methyl-(7S)-5,6,7,8-tetrahydro-5-quinolinyliden(imine)]iminomethanediamine 2CH3SO3H]	20
Cc1ccnc2c1C(=NN=C(N)N)CC(c1ccco1)C2 (stereo not drawn) [N-[7-(2-furyl)-4-methyl-5,6,7,8-tetrahydro-5-quinolinyliden(imine)]iminomethanediamine. dihydrochloride]	110
COc1ccccc1C1CC(=NN=C(N)N)c2c(C)ccnc2C1 (stereo not drawn) [N-[7-(2-methoxyphenyl)-4-methyl-5,6,7,8-tetrahydro-5-quinolinyliden(imine)]iminomethanediamine. dihydrochloride]	100
Cc1ccnc2c1C(=NN=C(N)N)CC(c1sc(Cl)cc1Cl)C2 (stereo not drawn) [N-[7-(3,5-dichloro-2-thienyl)-4-methyl-5,6,7,8-tetrahydro-5-quinolinyliden(imine)]iminomethanediamine. dihydrochloride]	49
Cc1ccnc2c1C(=NN=C(N)N)CC(c1cccc(Cl)c1)C2 (stereo not drawn) [N-[7-(3-chlorophenyl)-4-methyl-5,6,7,8-tetrahydro-5-quinolinyliden(imine)]iminomethanediamine. dihydrochloride]	61
Cc1ccnc2c1C(=NN=C(N)N)CC(c1ccc(Cl)cc1)C2 (stereo not drawn) [N-[7-(4-chlorophenyl)-4-methyl-5,6,7,8-tetrahydro-5-quinolinyliden(imine)]iminomethanediamine. dihydrochloride]	550
Cc1ccc(F)cc1C1CC(=NN=C(N)N)c2c(C)ccnc2C1 (stereo not drawn) [N-[7-(5-fluoro-2-methylphenyl)-4-methyl-5,6,7,8-tetrahydro-5-quinolinyliden(imine)]iminomethanediamine. dihydrochloride]	37

From BindingDB's records for doi:10.1021/jm0104567 (Takeda Chemical Industries, 2002)
